{"source": "paper PMC9783227", "about": "“New Derivatives of the Multi-Stage Active Malaria Box Compound MMV030666 and Their Antiplasmodial Potencies” (Pharmaceuticals, 2022)", "key": {"P. falciparum NF54 [1]": {"tested_on": "P. falciparum NF54", "test": "In vitro microplate assay against P. falciparum NF54 (3H-hypoxanthine incorporation)", "assay_type": "cell-based, Plasmodium falciparum", "details": "for IC50: average of four determinations, read-out: PfNF54 IC50", "protocol": "(§1) All newly prepared compounds were tested for their in vitro activity against the chloroquine sensitive strain NF54 of P. falciparum. Cytotoxicity was determined using L-6 cells (rat skeletal myofibroblasts). Chloroquine and podophyllotoxin were used as standards.\nThe in vitro activity of compounds against erythrocytic stages of the drug sensitive NF54 strain of P. falciparum […] was determined using a ^3H-hypoxanthine incorporation assay. Compounds were dissolved in DMSO at 10 mg/mL and further diluted in medium before adding to parasite cultures that were incubated in RPMI 1640 medium without hypoxanthine, supplemented with HEPES (5.94 g/L), NaHCO3 (2.1 g/L), neomycin (100 U/mL), AlbumaxR (5 g/L) and washed human red blood cells A+ at 2.5% haematocrit (0.3% parasitaemia). Serial drug dilutions of eleven 3-fold dilutions steps covering a range from 100 to 0.002 µg/mL were prepared. The 96-well plates were incubated in a humidified atmosphere at 37 °C; 4% CO2, 3% O2, 93% N2. After 48 h of incubation time, 0.05 mL of ^3H-hypoxanthine (=0.5 µCi) was added to each well of the plate. The plates were incubated for further 24 h under the same conditions. Plates were then harvested using a Betaplate^TM cell harvester (Wallac, Zurich, Switzerland). Red blood cells were transferred onto a glass fiber filter and then washed with distilled water. The dried filters were inserted into a plastic foil with 10 mL of scintillation fluid and counted in a Betaplate^TM liquid scintillation counter (Wallac, Zurich, Switzerland). IC50 values were calculated from sigmoidal inhibition curves by linear regression using Microsoft Excel. Chloroquine (Sigma C6628) was used as control."}, "in vitro": {"test": "in vitro", "details": "rat", "protocol": "as §1\n(§2) The cytotoxicity assays were performed using 96-well microtiter plates, each well containing 4000 L-6 cells (a primary cell line derived from rat skeletal myofibroblasts, ATCC CRL-1458^TM) in 0.1 mL of RPMI 1640 medium supplemented with 1% glutamine (200 mM) and 10% fetal bovine serum. Serial drug dilutions of eleven 3-fold dilution steps covering a range from 100 to 0.002 µg/mL were prepared. After 70 h of incubation, the plates were inspected under an inverted microscope to assure growth of the controls and sterile conditions. Then, 0.01 mL resazurin solution (resazurin, 12.5 mg in 100 mL double-distilled water) was added to each well and the plates were incubated for another 2 h. The plates were read with a Spectramax Gemini XS microplate fluorometer (Molecular Devices Cooperation, Sunnyvale, CA, USA) using an excitation wavelength of 536 nm and an emission wavelength of 588 nm. IC50 values were calculated by linear regression from the sigmoidal dose inhibition curves using SoftmaxPro software (Molecular Devices Cooperation, Sunnyvale, CA, USA). Podophyllotoxin (Sigma P4405) was used as control."}, "[2]": {"test": "Solubility in DMSO and methanol (PAMPA stock solutions)", "assay_type": "physicochemical", "experimental": "Permeability is defined using hydrochlorothiazide (Pe = 0.09 × 10^−6 cm/s) and caffeine (Pe = 8.00 × 10^−6 cm/s) as standards.\nWith the high-throughput PAMPA the newly synthesized compounds were tested for their passive permeability through cell membranes without the influence of efflux pumps or transporter proteins. The assay was performed using a Corning® Gentest^TM Pre-coated PAMPA Plate System with 96-well polystyrene plates. The bottom of the acceptor plate consists of a porous membrane, whereby the pores are lined with a lipid-oil-lipid triple layer. Stock solutions of each test compound at 10 mM were prepared in DMSO or methanol and diluted with phosphate-buffered saline (PBS at a pH of 7.4) to a final concentration of 200 µM. Hydrochlorothiazide (Pe = 0.9 nm/s) and caffeine (Pe = 80 nm/s) were used as standards. The donor plate (bottom plate) was filled with the compound solutions, whereby all compounds were tested in quadruplicates. Each well of the acceptor plate (top plate) was filled with PBS buffer. Donor and acceptor plates were combined and incubated at room temperature for 5 h. After that, the plates were separated and 150 µL of each well of both plates were transferred to 96-well UV plates (Greiner Bio-One). Absorption at different wavelengths covering a range from 200 to 300 nm was measured using a SpectraMax M3 UV plate reader. By measuring serial dilutions of five dilution steps covering a range from 200 to 12.5 µM, a calibration curve was prepared. The plates were analyzed at the wavelength where the R^2 value of the calibration curve was higher than 0.99 [41]. […] (2) cequ=[cD(t)∗VD+cA(t)∗VA]/(VD+VA) where: • VD—donor well volume (0.3 mL); • VA—acceptor well volume (0.2 mL); • cA(t)—acceptor well compound concentration at time t; • cD(t)—donor well compound concentration at time t."}, "[3]": {"test": "Parallel artificial membrane permeability assay (PAMPA)", "details": "PAMPA, PBS pH 7.4, 200 µM, 5 h, room temperature", "protocol": "The parallel artificial membrane permeability assay (PAMPA) is a fast and easy high-throughput assay to determine passive permeability of compounds through semi-permeable membranes (for example the blood-brain-barrier) without the influence of efflux pumps or transporter molecules.\nWith the high-throughput PAMPA the newly synthesized compounds were tested for their passive permeability through cell membranes without the influence of efflux pumps or transporter proteins. The assay was performed using a Corning® Gentest^TM Pre-coated PAMPA Plate System with 96-well polystyrene plates. The bottom of the acceptor plate consists of a porous membrane, whereby the pores are lined with a lipid-oil-lipid triple layer. Stock solutions of each test compound at 10 mM were prepared in DMSO or methanol and diluted with phosphate-buffered saline (PBS at a pH of 7.4) to a final concentration of 200 µM. […] The donor plate (bottom plate) was filled with the compound solutions, whereby all compounds were tested in quadruplicates. Each well of the acceptor plate (top plate) was filled with PBS buffer. Donor and acceptor plates were combined and incubated at room temperature for 5 h. After that, the plates were separated and 150 µL of each well of both plates were transferred to 96-well UV plates (Greiner Bio-One). Absorption at different wavelengths covering a range from 200 to 300 nm was measured using a SpectraMax M3 UV plate reader. […] The plates were analyzed at the wavelength where the R^2 value of the calibration curve was higher than 0.99 [41]. […] (2) cequ=[cD(t)∗VD+cA(t)∗VA]/(VD+VA) where: • VD—donor well volume (0.3 mL); • VA—acceptor well volume (0.2 mL); • cA(t)—acceptor well compound concentration at time t; • cD(t)—donor well compound concentration at time t.\nRecovery of compounds from donor and acceptor wells (mass retention) was calculated as shown in the equation below. Data were only accepted when recovery exceeded 70%. (3) R=1−[cD(t)∗VD+cA(t)∗VA]/(c0∗VD) where: • R—mass retention (%); • VD—donor well volume (0.3 mL); • VA—acceptor well volume (0.2 mL); • cA(t)—acceptor well compound concentration at time t; • cD(t)—donor well compound concentration at time t; • c0—initial donor well compound concentration (200 µM)."}, "P. falciparum NF54 [4]": {"tested_on": "P. falciparum NF54", "set-up": "method as in PMID 34832891", "details": "comparison compounds 1-4 of the first series, cited from earlier work; for IC50: read-out: PfNF54 IC50"}, "L-6 cells [5]": {"tested_on": "L-6 cells", "set-up": "method as in PMID 34832891", "details": "comparison compounds 1-4 of the first series; read-out: Cytotoxicity L-6 Cells IC50; cited from earlier work"}, "L-6 cells [6]": {"tested_on": "L-6 cells", "test": "in vitro", "protocol": "as §1, §2"}, "[7]": {"details": "Plasmodium falciparum, NF54, chloroquine sensitive strain NF54, erythrocytic stages"}, "[8]": {"details": "reason why permeability could not be detected"}, "[9]": {"details": "chloroquine sensitive strain NF54, erythrocytic stages"}}, "note": "Read-outs that look alike come from different tables or passages of the source."}
{"compound": "CC(C)(C)C(=O)N1CCN(c2ccccc2NC(=O)c2ccccc2Oc2ccc(F)cc2)CC1", "note": "[Compound 33, N-{2-[4-(2,2-Dimethylpropanoyl)piperazin-1-yl]phenyl}-2-(4-fluorophenoxy)benzamid]", "values": [{"measurement": "IC50", "setting": "P. falciparum NF54 [1]; [7]", "value": 2.15, "unit": "µM"}, {"measurement": "IC50 at 72 h", "setting": "in vitro", "value": 38.3, "unit": "µM"}, {"measurement": "solubility in DMSO and methanol", "setting": "[2]; [8]", "value": "insufficient solubility"}]}
{"compound": "CC(C)(C)OC(=O)N1CCN(c2ccccc2NC(=O)c2cccc(C(F)(F)F)c2Oc2ccc(F)cc2)CC1", "note": "[Compound 1, reference compound]", "values": [{"measurement": "Pe", "setting": "[3]", "value": "2.37 10^−6 cm/s"}, {"measurement": "S.I. = IC50 (Cyt.)/IC50 (PfNF54)", "setting": "P. falciparum NF54 [4]", "value": 316.9}, {"measurement": "IC50", "setting": "P. falciparum NF54 [4]", "value": 0.413, "unit": "µM"}, {"measurement": "IC50", "setting": "L-6 cells [5]", "value": 131, "unit": "µM"}]}
{"compound": "CC(C)(C)C(=O)N1CCN(c2ccc(NC(=O)c3cccc(C(F)(F)F)c3Oc3ccc(F)cc3)cc2)CC1", "note": "[Compound 4]", "values": [{"measurement": "S.I. = IC50 (Cyt.)/IC50 (PfNF54)", "setting": "P. falciparum NF54 [4]", "value": 171.9}, {"measurement": "IC50", "setting": "P. falciparum NF54 [4]", "value": 0.58, "unit": "µM"}, {"measurement": "IC50", "setting": "L-6 cells [5]", "value": 99.6, "unit": "µM"}]}
{"compound": "tert-Butyl 4-{4-[3-fluoro-2-(4-fluorophenoxy)benzamido]phenyl}piperazin-1-carboxylate [Compound 27]", "values": [{"measurement": "S.I. = IC50 (Cyt.)/IC50 (PfNF54)", "setting": "P. falciparum NF54 [1]; L-6 cells IC50 / PfNF54 IC50", "value": 237.5}, {"measurement": "IC50", "setting": "P. falciparum NF54 [1]; [9]", "value": 0.65, "unit": "µM"}, {"measurement": "IC50", "setting": "L-6 cells [6]", "value": 154, "unit": "µM"}, {"measurement": "solubility in DMSO and methanol", "setting": "[2]", "value": "insufficient solubility"}]}
{"compound": "CC(C)(C)C(=O)N1CCN(c2ccccc2NC(=O)c2cccc(C(F)(F)F)c2Oc2ccc(F)cc2)CC1", "note": "[Compound 3]", "values": [{"measurement": "S.I. = IC50 (Cyt.)/IC50 (PfNF54)", "setting": "P. falciparum NF54 [4]", "value": 299.7}, {"measurement": "IC50", "setting": "P. falciparum NF54 [4]", "value": 0.617, "unit": "µM"}, {"measurement": "IC50", "setting": "L-6 cells [5]", "value": 185, "unit": "µM"}]}
{"compound": "CC(C)(C)OC(=O)N1CCN(c2ccccc2NC(=O)c2ccccc2Oc2ccc(F)cc2)CC1", "note": "[Compound 26, tert-Butyl 4-{2-[2-(4-fluorophenoxy)benzamido]phenyl}piperazine-1-carboxylate]", "values": [{"measurement": "IC50", "setting": "P. falciparum NF54 [1]; [7]", "value": 0.627, "unit": "µM"}, {"measurement": "IC50 at 72 h", "setting": "in vitro", "value": 154, "unit": "µM"}, {"measurement": "solubility in DMSO and methanol", "setting": "[2]; [8]", "value": "insufficient solubility"}]}
{"compound": "CC(C)(C)C(=O)N1CCN(c2ccc(NC(=O)c3cccc([N+](=O)[O-])c3Oc3ccc(F)cc3)cc2)CC1", "note": "[Compound 44, N-{4-[4-(2,2-Dimethylpropanoyl)piperazin-1-yl]phenyl}-2-(4-fluorophenoxy)-3-nitrobenzamid]", "values": [{"measurement": "IC50", "setting": "P. falciparum NF54 [1]; [7]", "value": 1.5, "unit": "µM"}, {"measurement": "IC50 at 72 h", "setting": "in vitro", "value": 144, "unit": "µM"}, {"measurement": "solubility in DMSO and methanol", "setting": "[2]; [8]", "value": "insufficient solubility"}]}
{"compound": "CC(C)(C)OC(=O)N1CCN(c2ccc(NC(=O)c3cccc(C(F)(F)F)c3Nc3ccccc3)cc2)CC1", "note": "[Compound 41, tert-Butyl 4-{4-[2-anilino-3-(trifluoromethyl)benzamido]phenyl}piperazin-1-carboxylate]", "values": [{"measurement": "IC50", "setting": "P. falciparum NF54 [1]; [7]", "value": "0.539 to 0.634", "unit": "µM"}, {"measurement": "IC50", "setting": "P. falciparum NF54 [1]; [9]", "value": 0.634, "unit": "µM"}, {"measurement": "IC50 at 72 h", "setting": "in vitro", "value": 33.8, "unit": "µM"}, {"measurement": "Papp at 5 h, 200 µM", "setting": "[3]; pH 7.4, Pe", "value": 1.32, "unit": "×10⁻⁶ cm/s"}]}
{"compound": "CC(C)(C)OC(=O)N1CCN(c2ccc(NC(=O)c3cccc(C(F)(F)F)c3Oc3ccc(F)cc3)cc2)CC1", "note": "[Compound 2]", "values": [{"measurement": "S.I. = IC50 (Cyt.)/IC50 (PfNF54)", "setting": "P. falciparum NF54 [4]", "value": 461.0}, {"measurement": "IC50", "setting": "P. falciparum NF54 [4]", "value": 0.269, "unit": "µM"}, {"measurement": "IC50", "setting": "L-6 cells [5]", "value": 124, "unit": "µM"}]}
